Results as given in patent US11591323B2, “Muscarinic agonists as non-steroidal and non-opioid analgesics and methods of use thereof” (Barry University, priority 2019, dated 2023).

What was measured:
[1] = target: T1, M1 muscarinic receptor (Homo sapiens, UniProt P11229); assay: inhibition of forskolin-stimulated cAMP, M1 CHO cells (M1Gi); format: cell-based; set-up: host or cells: CHO cells, stably transfected; conditions: for Emax: CHO; for Emax / EC50 / τ / RAi / Kd: M1Gi (↓cAMP); for Emax / EC50 / τ / Kd: Table 8; for effect on forskolin-stimulated production of cAMP: M1, non-preferential response, in words; for RAi: Table 8, relative to carbachol; for Kd: read-out: pKA (converted)
T1 sequence (P11229 1-460): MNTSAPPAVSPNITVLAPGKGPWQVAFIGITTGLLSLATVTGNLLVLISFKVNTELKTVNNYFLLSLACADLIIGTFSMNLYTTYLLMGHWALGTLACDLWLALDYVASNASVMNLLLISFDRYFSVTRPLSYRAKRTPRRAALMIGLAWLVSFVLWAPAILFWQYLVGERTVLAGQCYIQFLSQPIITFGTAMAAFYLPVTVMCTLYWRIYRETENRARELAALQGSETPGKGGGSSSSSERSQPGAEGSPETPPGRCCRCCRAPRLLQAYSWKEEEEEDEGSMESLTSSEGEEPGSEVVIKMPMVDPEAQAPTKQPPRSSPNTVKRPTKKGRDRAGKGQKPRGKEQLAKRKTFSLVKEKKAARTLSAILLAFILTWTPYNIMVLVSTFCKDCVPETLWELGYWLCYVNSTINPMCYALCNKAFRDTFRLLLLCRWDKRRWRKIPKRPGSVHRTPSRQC
Protocol: (§1) Since activation of phospholipase C (PLC) via M2 and M4 receptors is weak, cells were transferred with G15 G-protein to facilitate coupling.
(§2) To determine level of cAMP, cells in suspension were pre-incubated for 1 h with 0.4 μM [^3H]adenine, washed, and incubated for 10 min in the presence of isobutylmethylxanthine and 10 μM forskolin. […] Incubation was ended by addition of 0.2 ml of 2.5 M HCl to the samples. Samples were applied to alumina columns (1.5 g of alumina per column), washed with 2 ml ammonium acetate (pH=7.0) and eluted from columns with 4 ml ammonium acetate and measured by liquid scintillation spectrometry. […] The incubation was stopped by addition of 0.5 ml of chloroform methanol HCl mixture (2:1:0.1). After separation of water and organic phases, 0.6 ml of water phase was applied to Dowex columns (1.5 g of Dowex per column), washed by 20 ml of 60 mM ammonium formate/5 mM sodium borate buffer and eluted from columns with 4 ml of 1M ammonium formate/0.1 formic acid buffer and measured by liquid scintillation spectrometry.
(§3) Measurements of the production of cAMP and inositol phosphates: Levels of second messengers cAMP and inositol phosphates were determined in radiochemical chromatography assays as described previously. To determine level of cAMP, cells in suspension were pre-incubated for 1 h with 0.4 μM [^3H]adenine, washed, and incubated for 10 min in the presence of isobutylmethylxanthine and 10 μM forskolin. […] Incubation was ended by addition of 0.2 ml of 2.5 M HCl to the samples. Samples were applied to alumina columns (1.5 g of alumina per column), washed with 2 ml ammonium acetate (pH=7.0) and eluted from columns with 4 ml ammonium acetate and measured by liquid scintillation spectrometry. […] For this purpose, new CHO cell lines stably expressing promiscuous G15 G-protein and M2 or M4 receptor were generated by transfection with pCMV/hygro vector and hygromycin selection. To determine the rate of formation of inositol phosphates IPX, suspended cells were pre-incubated with 0.1 μM [^3H]myo-inositol for 60 min, washed, and incubated with 10 mM LiCl for 15 min. […] The incubation was stopped by addition of 0.5 ml of chloroform methanol HCl mixture (2:1:0.1). After separation of water and organic phases, 0.6 ml of water phase was applied to Dowex columns (1.5 g of Dowex per column), washed by 20 ml of 60 mM ammonium formate/5 mM sodium borate buffer and eluted from columns with 4 ml of 1M ammonium formate/0.1 formic acid buffer and measured by liquid scintillation spectrometry.
(§4) For bi-phasic response, curves were inhibitory and stimulatory phase were fitted separately. Operational Model of Functional Agonism
(§5) [formula] where y is functional response at concentration of tested compound x, EMAX is maximal response of the system, KA is equilibrium dissociation constant and nH is slope factor. Eq. 5 was fitted to data from functional experiments. Eq. 5 was fitted to data by the two-step procedure described earlier. […] In the second step, Eq. 5 with EMAX fixed to the value determined in the first step was fitted to individual experimental data sets. Relative Intrinsic Activity
(§6) Muscarinic receptors are also able to stimulate non-preferential signalling pathways.

[2] = target: M3 muscarinic receptor (Homo sapiens, UniProt P20309); assay: inhibition of forskolin-stimulated cAMP, M3 CHO cells (M3Gi); format: cell-based; set-up: host or cells: CHO cells, stably transfected; conditions: for Emax: CHO; for Emax / EC50 / τ / RAi / Kd: M3Gi (↓cAMP); for Emax / EC50 / τ / Kd: Table 8; for effect on forskolin-stimulated production of cAMP: M3, non-preferential response, in words; for RAi: Table 8, relative to carbachol; for Kd: read-out: pKA (converted)
Protocol: as §1, §2, §3, §4, §5, §6

Chain of M3 muscarinic receptor (P20309 whole entry): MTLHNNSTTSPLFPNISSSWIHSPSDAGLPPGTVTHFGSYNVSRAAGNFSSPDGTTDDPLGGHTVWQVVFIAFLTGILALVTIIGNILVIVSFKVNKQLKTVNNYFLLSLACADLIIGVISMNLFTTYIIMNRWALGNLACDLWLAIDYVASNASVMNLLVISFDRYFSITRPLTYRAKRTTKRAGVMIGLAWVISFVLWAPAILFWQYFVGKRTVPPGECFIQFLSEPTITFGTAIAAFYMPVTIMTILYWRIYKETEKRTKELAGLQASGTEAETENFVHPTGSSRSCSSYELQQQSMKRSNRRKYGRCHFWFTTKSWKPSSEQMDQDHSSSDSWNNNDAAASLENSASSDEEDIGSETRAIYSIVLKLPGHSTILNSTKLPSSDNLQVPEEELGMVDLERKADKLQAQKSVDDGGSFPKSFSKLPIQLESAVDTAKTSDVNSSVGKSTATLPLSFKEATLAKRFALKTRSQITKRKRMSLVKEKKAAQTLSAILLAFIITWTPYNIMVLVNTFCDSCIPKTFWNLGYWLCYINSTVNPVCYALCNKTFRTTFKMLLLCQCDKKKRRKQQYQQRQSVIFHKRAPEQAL

Row | SMILES | Emax [1] [%] | effect on forskolin-stimulated production of cAMP [1] | EC50 [1] [µM] | τ [1] | RAi [1] | Kd [1] [µM] | Emax [2] [%] | effect on forskolin-stimulated production of cAMP [2] | EC50 [2] [µM] | τ [2] | RAi [2] | Kd [2] [µM]
1 | C1=CCN(Cc2cccs2)CC1.Cl [Compound 6A, 1-[(thiophen-2-yl)methyl]-1,2,3,6-tetrahydropyridin-1-ium chloride] | 26 ± 2 | inhibited cAMP production | 11.7 | 0.42 ± 0.04 | +inf. | 15.8 | 13 ± 1 | inhibited cAMP production | 7.76 | 0.17 ± 0.02 | +inf. | 10
2 | C[N+]1(Cc2cccs2)CC=CCC1.[I-] (stereo not drawn) [Compound 7A, 1-methyl-1-[(thiophen-2-yl)methyl]-1,2,3,6-tetrahydropyridin-1-ium iodide] | 30 ± 3 | inhibited cAMP production | 7.94 | 0.52 ± 0.05 | +inf. | 12.6 | 16 ± 1 | inhibited cAMP production | 8.71 | 0.22 ± 0.02 | +inf. | 10
